Assays:
[1] = Pharmacokinetics in Beagle dogs, single s.c. and i.v. injection (Example 5); assay type: in vivo; conditions: male, plasma, 200 ug/kg, dog
Text: The dosing vehicle was PBS buffer, pH 7.

in vivo [2] = conditions: male, Beagle, dog, plasma, sc
Protocol: Beagle dogs (males with a body weight of approximately 10-12 kg) were given a single subcutaneous (s.c.) injection of the peptides to be tested. Following s.c. administration of the selected compounds (dose 10, 20, 50, 100, 200 and 400 μg/kg), dosing volume 0.1 m/kg, blood samples were drawn at 0, 3, 6, 8, 12, 24, 48, 72, 96, 120, 144, 168, 192, 216, 240, 264, 288, 312, 336, 576, 744, 936, 1104 and 1272 hours.
Blood was sampled through a venflon on day 1 (excluding the 8-hour timepoint). At the 8-hour sampling time, and the sampling timepoints hereafter, the blood was be sampled through v. jugularis with a vacutainer and vacutainer needle. The dosing vehicle was PBS buffer, pH 7.
(§1) Plasma samples were analyzed after protein precipitation by liquid chromatography mass spectrometry (LC-MS/MS). Individual plasma concentrations were used for calculation of the pharmacokinetic parameters using the non-compartmental approach in Phoenix WinNonlin 8.3 or a later version. Plasma terminal elimination half-life (T½) was determined as ln(2)/λz where λz is the magnitude of the slope of the log linear regression of the log concentration versus time profile during the terminal phase. AUCinf is the area under the plasma concentration−time curve extrapolated to infinity (AUCinf=AUClast+Clast/λz, where Clast is the last observed plasma concentration). C0 is back extrapolated by log-linear regression of the first two data points.

[3] = Pharmacokinetics in rats, single i.v. bolus (Example 11); assay type: in vivo, Sprague Dawley or Wistar rats; conditions: male, plasma, iv, rat, 511 nmol/kg
Protocol: Sprague Dawley or Wistar rats (males with a body weight of approximately 250-350 g) were given a single intravenous (i.v. bolus) injection of the peptide to be tested. […] At each sampling time point, samples from the rats were drawn by tail cut. The dosing vehicle was 20 mM phosphate buffer, 260 mM mannitol, pH 7.
Plasma samples were analyzed after protein precipitation by liquid chromatography mass spectrometry (LC-MS/MS). Individual plasma concentrations were used for calculation of the pharmacokinetic parameters using the non-compartmental approach in Phoenix WinNonlin 8.3 or a later version. Plasma terminal elimination half-life (T½) was determined as ln(2)/λz where λz is the magnitude of the slope of the log linear regression of the log concentration versus time profile during the terminal phase. AUCinf is the area under the plasma concentration−time curve extrapolated to infinity (AUCinf=AUClast+Clast/λz, where Clast is the last observed plasma concentration). C0 is the plasma concentration at the dosing time intercept and is back extrapolated by log-linear regression of the first two data points.

in vivo [4] = conditions: male, rat, plasma, iv, 510 nmol/kg
Protocol: Sprague Dawley or Wistar rats (males with a body weight of approximately 250-350 g) were given a single intravenous (i.v. bolus) injection of the peptide to be tested. Following i.v. administration of compound 1 (dose 510 nmol/kg, dosing volume […]), blood samples were drawn at 10 min, 15 min, 40 min, 1 h, 2 h, 4 h, 8 h, 24 h post-dose. At each sampling time point, samples from the rats were drawn by tail cut. The dosing vehicle was 20 mM phosphate buffer, 260 mM mannitol, pH 7.
as §1, with “C0 is the plasma concentration at the dosing time intercept and is back extrapolated” for “C0 is back extrapolated”

Integrin α4β7-MAdCAM-1 = Integrin α4β7-MAdCAM-1 (Homo sapiens, UniProt P13612+P26010); assay: cell-based
Chain of Integrin α4β7-MAdCAM-1 (P13612 34-1032): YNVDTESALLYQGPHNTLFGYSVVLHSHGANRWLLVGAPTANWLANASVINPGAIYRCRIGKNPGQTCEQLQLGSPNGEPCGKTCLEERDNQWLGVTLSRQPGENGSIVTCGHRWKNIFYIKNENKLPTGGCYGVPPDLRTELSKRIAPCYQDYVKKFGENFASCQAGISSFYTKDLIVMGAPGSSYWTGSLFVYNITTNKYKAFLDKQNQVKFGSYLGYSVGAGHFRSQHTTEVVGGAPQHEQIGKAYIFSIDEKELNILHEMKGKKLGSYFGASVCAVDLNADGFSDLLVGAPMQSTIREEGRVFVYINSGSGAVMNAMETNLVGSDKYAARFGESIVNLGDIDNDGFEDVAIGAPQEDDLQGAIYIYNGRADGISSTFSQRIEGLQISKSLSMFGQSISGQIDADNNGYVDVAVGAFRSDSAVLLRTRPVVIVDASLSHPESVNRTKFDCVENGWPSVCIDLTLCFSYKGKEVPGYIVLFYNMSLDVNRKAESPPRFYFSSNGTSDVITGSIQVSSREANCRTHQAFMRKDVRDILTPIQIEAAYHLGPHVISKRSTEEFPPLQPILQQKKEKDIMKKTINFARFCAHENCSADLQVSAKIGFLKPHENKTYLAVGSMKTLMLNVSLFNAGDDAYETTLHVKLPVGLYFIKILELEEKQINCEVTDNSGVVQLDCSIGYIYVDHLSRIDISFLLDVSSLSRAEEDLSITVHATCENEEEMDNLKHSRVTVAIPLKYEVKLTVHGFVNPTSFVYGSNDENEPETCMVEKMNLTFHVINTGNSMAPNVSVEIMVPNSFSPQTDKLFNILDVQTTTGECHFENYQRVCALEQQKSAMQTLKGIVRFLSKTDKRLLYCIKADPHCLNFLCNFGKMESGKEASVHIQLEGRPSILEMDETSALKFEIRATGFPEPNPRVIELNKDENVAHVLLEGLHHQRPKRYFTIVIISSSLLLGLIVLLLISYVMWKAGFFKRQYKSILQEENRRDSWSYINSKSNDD
Chain of Integrin α4β7-MAdCAM-1 (P26010 20-798): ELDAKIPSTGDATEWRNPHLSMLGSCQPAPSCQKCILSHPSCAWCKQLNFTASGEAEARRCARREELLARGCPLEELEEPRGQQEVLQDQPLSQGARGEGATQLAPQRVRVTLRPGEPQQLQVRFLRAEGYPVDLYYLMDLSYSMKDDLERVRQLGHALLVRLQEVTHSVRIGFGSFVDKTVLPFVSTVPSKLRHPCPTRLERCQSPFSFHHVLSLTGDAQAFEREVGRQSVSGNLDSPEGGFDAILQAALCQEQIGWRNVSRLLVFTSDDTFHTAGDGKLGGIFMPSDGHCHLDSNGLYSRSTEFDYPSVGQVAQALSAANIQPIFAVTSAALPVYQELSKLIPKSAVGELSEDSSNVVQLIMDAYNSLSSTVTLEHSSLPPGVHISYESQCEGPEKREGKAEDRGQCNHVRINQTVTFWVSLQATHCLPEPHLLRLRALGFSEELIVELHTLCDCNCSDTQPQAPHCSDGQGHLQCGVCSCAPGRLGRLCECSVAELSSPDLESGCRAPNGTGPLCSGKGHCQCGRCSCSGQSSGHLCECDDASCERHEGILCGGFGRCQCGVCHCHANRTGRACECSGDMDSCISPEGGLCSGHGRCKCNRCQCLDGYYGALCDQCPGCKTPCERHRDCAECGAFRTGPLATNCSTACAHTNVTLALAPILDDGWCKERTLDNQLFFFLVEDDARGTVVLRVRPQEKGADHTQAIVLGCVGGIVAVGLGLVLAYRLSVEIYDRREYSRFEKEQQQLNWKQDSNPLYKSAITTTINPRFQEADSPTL
Protocol: Recombinant human MAdCAM-1 (rhMAdCAM-1) was obtained from R&D systems (Cat #6056-MC-050).
Binding buffer (1.5 mM CaCl2, 1 mM MnCl2, 100 mM NaCl, 50 mM TRIS-HCl (pH 7.5)
Cells: The human B lymphocyte cell line RPMI 8866 was obtained from Merck via ECACC (European collection of authenticated cell cultures) (Cat #95041316 and lot #14G012).
Day 0: RPMI 8866 cells were split to a concentration of 500.000 cells/mL.
A Maxisorp plate was coated with 100 μL/well of 1 μg/mL rhMAdCAM-1 in coating buffer. Plate was sealed with TopSeal A plus and incubated at 4° C. overnight.
Day 1: The plate was washed twice with 150 μL wash buffer and then blocked with 250 μL/well blocking buffer (1% BSA in PBS) for one hour at room temperature. CFSE Celltrace stock solution was prepared immediately prior to use by adding 18 μL of DMSO to one vial of CellTrace™ reagent and mixing well. […]
The cells were pelleted by centrifugation and resuspended in fresh pre-warmed complete culture medium and the cells were counted. […]
After the last wash, 100 μL of PBS (without Mg^2+ and Ca^2+) was added to each well and the fluorescence was read (Ex485/Em535) using a plate reader (Envision 2105 Multimode plate reader). To calculate the concentration response, the fluorescence value of control wells not containing cells was subtracted from each test well.
IC50 values were calculated using 4-parameter nonlinear fit of the data.

SMILES: CC[C@H](C)[C@@H]1NC(=O)[C@H](CC(=O)O)NC(=O)[C@H](CC(C)C)NC(=O)c2ccc(-c3ccc(N4CCN(C(=O)c5ccccc5-c5ccccc5C(=O)N5CCN(c6ccc(-c7ccc8cc7CNC(=O)[C@@H]7CCCN7[C@H](C(=O)NC(C)(C)C)[C@H](C)NC(=O)[C@H]([C@@H](C)CC)NC(=O)[C@H](CC(=O)O)NC(=O)[C@H](CC(C)C)NC8=O)cc6)CC5)CC4)cc3)c(c2)CNC(=O)[C@@H]2CCCN2[C@H](C(=O)NC(C)(C)C)[C@H](C)NC1=O [Compound 1, 2,2′-((S,S,S,S,S,S,12S,8S, 11S,14S,17S,18S)-((([1,1′-biphenyl]-2,2′-dicarbonyl)bis(piperazine-4,1-diyl))bis(4,1-phenylene))bis(14-((S)-sec-butyl)-18-(tert-butylcarbamoyl)-8-isobutyl-17-methyl-2,6,9,12,15-pentaoxo-3,7,10,13,16-pentaaza-1(2,1)-pyrrolidina-5(1,3)-benzenacyclooctadecaphane-56,11-diyl))diacetic acid]
- AUC(0-inf) ([1]; IV): 19.3 µM·h
- Cmax ([1]; IV): 743 nM
- half-life ([1]; IV): 53 h
- AUC(0-inf) ([1]; SC): 21.8 µM·h
- Cmax ([1]; SC): 127 nM
- half-life ([1]; SC): 95.2 h
- AUC(0-inf) (in vivo [2]; 10 ug/kg): 2.46 µM·h
- Cmax (in vivo [2]; 10 ug/kg): 18.1 nM
- Tmax (in vivo [2]; 10 ug/kg): 20 h
- half-life (in vivo [2]; 10 ug/kg): 340 h
- AUC(0-inf) (in vivo [2]; 20 ug/kg): 5.68 µM·h
- Cmax (in vivo [2]; 20 ug/kg): 43.1 nM
- Tmax (in vivo [2]; 20 ug/kg): 20 h
- half-life (in vivo [2]; 20 ug/kg): 460 h
- AUC(0-inf) (in vivo [2]; 50 ug/kg): 11.6 µM·h
- Cmax (in vivo [2]; 50 ug/kg): 102 nM
- Tmax (in vivo [2]; 50 ug/kg): 20 h
- half-life (in vivo [2]; 50 ug/kg): 340 h
- AUC(0-inf) (in vivo [2]; 100 ug/kg): 58.6 µM·h
- Cmax (in vivo [2]; 100 ug/kg): 504 nM
- Tmax (in vivo [2]; 100 ug/kg): 20 h
- half-life (in vivo [2]; 100 ug/kg): 230 h
- AUC(0-inf) (in vivo [2]; 200 ug/kg): 72.5 µM·h
- Cmax (in vivo [2]; 200 ug/kg): 417 nM
- Tmax (in vivo [2]; 200 ug/kg): 20 h
- half-life (in vivo [2]; 200 ug/kg): 230 h
- AUC(0-inf) (in vivo [2]; 400 ug/kg): 158 µM·h
- Cmax (in vivo [2]; 400 ug/kg): 927 nM
- Tmax (in vivo [2]; 400 ug/kg): 20 h
- half-life (in vivo [2]; 400 ug/kg): 260 h
- AUC(0-inf) [3]: 34 µM·h
- C0 [3]: 9020 nM
- half-life [3]: 7.88 h
- AUC(0-inf) (in vivo [4]): 32.2 µM·h
- half-life (in vivo [4]): 5.61 h
- IC50 (Integrin α4β7-MAdCAM-1): 35 nM
